From patent publication EP3290412A1, “HIV-1 NUCLEOCAPSID INHIBITORS” (Università degli Studi di Siena, priority 2016, dated 2018)
Where two headings read alike, the source gives them in different places.

How the values were obtained:
Type in all cases: cell-based
[1] = system: HIV-1 reference strain NL4-3; assay: MonoCycle assay (TZM-bl cells)
Protocol: MonoCycle assay is a cell based assay allowing the evaluation of antiviral activity of HIV-1 inhibitors targeting the early steps of HIV-1 life cycle such as entry, uncoating of viral particles, reverse transcription and integration. The assay consists in the infection of TZM-bl cells (20,000/well) with the HIV-1 reference strain NL4-3 in presence of serial five-fold dilutions of the investigational inhibitors. After 48 hours, cells were lysed adding 40 µl of Glo Lysis Buffer (Promega) to each well for 5 minutes, then 40 µl of Brighy-Glo Luciferase Reagent (Promega) were added to each well for relative luminescence units (RLU) counting using Glo-Max Multi Detection System (Promega). RLU values from each well were elaborated using the GraphPad v5.0 software to calculate the IC50 of each compound.

HeLa cells = assay: HeLa Proliferation assay (CellTiter Glo); details: 72 hours
Protocol: HeLa cells (ATCC® CCL2™) in DMEM (Dulbecco Modified Eagle's Medium) without phenol red, Thermo, 11880, USA + 10% FBS + 1X PenStrep + 1X Gln or HUVEC cells (ATCC® CRL1730™) in EBM-2 (Endothelial Growth Basal Medium, Lonza, CC3156) + EGM-2 SingleQuotsTMSupplements and Growth Factors (Lonza, CC4176) + 1X Penicyllin-Streptomycin (PenStrep, ThermoFisher) + 1X Glutamine, are plated in a 384 well plate (Thermo, 4334-11, USA) to a density of 2000 cells per well and let recover for four hours at 37 °C, 5% CO2 in a humidified atmosphere. After the recovery, compounds are transferred to assay plates as per compound preparation method. Assay plates are then incubated at 37 °C, 5% CO2 in a humidified atmosphere for 72 hours. Cell viability is measured by the CellTiter Glo (Promega, G8080, USA) as per manufacturer instruction.

[2] = system: Peripheral blood mononuclear cells (PBMC); details: human, 7 days
Protocol: Peripheral blood mononuclear cells (PBMC) obtained from healthy donors by separation over Ficoll-Hypaque (GEHealthear-Cat.# GEH17-1440-02) were suspended at 2x10^6 cells/mL in RPMI 1640 (Biowest-Cat.#L0501-500) supplemented with 10% of heat-inactivated sterile fetal bovine serum (Gibco-Cat.#10270-106), 2 mmol/l L-glutamine (Biowest-Cat.#X0550-100), 50 U/mL Penicillin-50 µg/mL Streptomycin (Biowest-Cat.#L0022-100), referred to as complete medium (CM). PBMC were supplemented with 5 µg/mL of phytohaemagglutinin (Sigma Aldr-Cat.#L1668) and cultured in 75 cm^2 flasks (Sarsted-Cat.#833.911.002) for 2 days at 37 °C in a humidified atmosphere with 5% CO2.
PBMC were then washed in CM, counted by trypan blue exclusion (Gibco-Cat. #15250-061), centrifuged and suspended in fresh CM supplemented with 20 IU/mL recombinant human IL-2 (Miltenyi Biotec-Cat.#130-097-748) and seeded in a 96-well-tissue culture plate (Sarsted-Ca#831.837) at the density of 5x10^5 cells/mL (or 1x10^5 cells in 200 µL final CM volume per well). Cells were left untreated (negative control) or treated with different concentrations of the compounds.
After 7 days of incubation cytotoxicity was determined using Promega's CellTiter 96(R) AQueous One Solution Cell Proliferation Assay (MTS assay) (Promega-Cat.#G3581) according to the manufacturer's instuctions. This is a colorimetric method for determining the number of viable cells in proliferation or cytotoxicity assays. The MTS tetrazolium compound is bioreduced by cells into a colored formazan product that is soluble in tissue culture medium. This conversion is presumably accomplished by NADPH or NADH produced by dehydrogenase enzymes in metabolically active cells.
Briefly, MTS solution was thawed at room temperature, or in a water bath at 37 °C and 40 µL of MTS solution was pipeted into each well of the 96-well assay plate containing the samples in 200 µL of culture medium and incubated at 37 °C, 5% CO2 for 4 hours. The optical density was read at 490 nm using a 96-well plate reader (Tecan Infinite F50) and TD50 (toxic dose 50%, dose killing 50% of the cells compared to untreated control) value was calculated by interpolation of the curve obtained by plotting dose against percent mortality and by using "Magellan data analysis software". CM alone plus MTS solution was used as a blank, and cell culture well without compound was used as a cellular control.

[3] = Human immunodeficiency virus 1, NL43, TZM-bl, 48 h, read-out: Mono Cycle IC50 nM
[4] = Human immunodeficiency virus 1, NL43, TZM-bl cells, NL4-3, 48 hours, read-out: Mono Cycle IC50

SMILES	IC50 [1, 3] [nM]	Proliferation assay HELA TD50 (HeLa cells) [µM]	Proliferation assay PBMC TD50 [2] [µM]	IC50 [1, 4] [nM]
CN1CCCC(CNC(=O)c2nc(-c3ccccn3)nc(O)c2O)C1 (stereo not drawn) [Compound 7, 5,6-dihydroxy-N-((1-methylpiperidin-3 - yl)methyl)-2-(pyridin-2-yl)pyrimidine-4-carboxamide]	> 50000	>50	>50	
O=C(NCCCC1CCCCC1)c1nc(-c2ccccn2)nc(O)c1O [Compound 8, N-(3-cyclohexylpropyl)-5,6-dihydroxy-2-(pyridin-2-yl)pyrimidine-4-carboxamide]	4540	4.8472	2	
Cc1cccnc1-c1nc(O)c(O)c(C(=O)OCC2CCCCC2)n1 [Compound 10, cyclohexylmethyl 5,6-dihydroxy-2-(3-methylpyridin-2-yl)pyrimidine-4-carboxylate]	> 50000	>50	8.1	
Cc1cccnc1-c1nc(O)c(O)c(C(=O)NCC2CCCCC2)n1 [Compound 11, N-(cyclohexylmethyl)-5,6-dihydroxy-2-(3-methylpyridin-2-yl)pyrimidine-4-carboxamide]	50000	8.2839	8.7	
O=C(OCCC1CCCCC1)c1nc(-c2ccccn2)nc(O)c1O [Compound 12, 2-cyclohexylethyl 5,6-dihydroxy-2-(pyridin-2-yl)pyrimidine-4-carboxylate]	> 50000	>50	4	
O=C(OCCCC1CCCCC1)c1nc(-c2ccccn2)nc(O)c1O [Compound 14, 3-cyclohexylpropyl 5,6-dihydroxy-2-(pyridin-2-yl)pyrimidine-4-carboxylate]	> 50000	>50	5.6	
O=C(OCC1CCCCC1)c1nc(-c2ncccc2Cl)nc(O)c1O [Compound 15, cyclohexylmethyl 2-(3-chloropyridin-2-yl)-5,6-dihydroxypyrimidine-4-carboxylate]		>50	25	> 50000
O=C(NCC1CCCCC1)c1nc(-c2ncccc2Cl)nc(O)c1O [Compound 16, 2-(3-chloropyridin-2-yl)-N-(cyclohexylmethyl)-5,6-dihydroxypyrimidine-4-carboxamide]		16.609	5.7	51100
CC(OC(=O)c1nc(-c2ccccn2)nc(O)c1O)C1CCCCC1 (stereo not drawn) [Compound 17, 1-cyclohexylethyl 5,6-dihydroxy-2-(pyridin-2-yl)pyrimidine-4-carboxylate]	> 50000	>50	5.5	
Cc1cccc(-c2nc(O)c(O)c(C(=O)N[C@H](C)C3CCCCC3)n2)n1 [Compound 18, (R)-N-(1-cyclohexylethyl)-5,6-dihydroxy-2-(6-methylpyridin-2-yl)pyrimidine-4-carboxamide]	37300	4.6302	2.4	
Cc1ccnc(-c2nc(O)c(O)c(C(=O)N[C@H](C)C3CCCCC3)n2)c1 [Compound 19, (R)-N-(1-cyclohexylethyl)-5,6-dihydroxy-2-(4-methylpyridin-2-yl)pyrimidine-4-carboxamide]	15300	2.7357	3.075	
C[C@@H](NC(=O)c1nc(-c2ccc(N)cn2)nc(O)c1O)C1CCCCC1 [Compound 20, (R)-2-(5-aminopyridin-2-yl)-N-(1-cyclohexylethyl)-5,6-dihydroxypyrimidine-4-carboxamide]	2110	0.6864	1.65	
C[C@@H](NC(=O)c1nc(-c2ccc(C(=O)OCc3ccccc3)cn2)nc(O)c1O)C1CCCCC1 [Compound 21, benzyl (R)-6-(4-((1-cyclohexylethyl)carbamoyl)-5,6-dihydroxypyrimidin-2-yl)nicotinate]	> 50000	3.9607	<0.4	
C[C@@H](NC(=O)c1nc(-c2ccc3ccccc3n2)nc(O)c1O)C1CCCCC1 [Compound 22, (R)-N-(1-cyclohexylethyl)-5,6-dihydroxy-2-(quinolin-2-yl)pyrimidine-4-carboxamide]	100000	2.8446	8.05	
O=C(NC1(C2CCCCC2)CC1)c1nc(-c2ccccn2)nc(O)c1O [Compound 24, N-(1-cyclohexylcyclopropyl)-5,6-dihydroxy-2-(pyridin-2-yl)pyrimidine-4-carboxamide]	3610	1.5131	2.6	
C[C@@H](NC(=O)c1nc(-c2cc3ccccc3cn2)nc(O)c1O)C1CCCCC1 [Compound 25, (R)-N-(1-cyclohexylethyl)-5,6-dihydroxy-2-(isoquinolin-3-yl)pyrimidine-4-carboxamide]	64000	1.3934	1.75	
C[C@@H](NC(=O)c1nc(-c2cc(C(F)(F)F)ccn2)nc(O)c1O)C1CCCCC1 [Compound 27, (R)-N-(1-cyclohexylethyl)-5,6-dihydroxy-2-(4-(trifluoromethyl)pyridin-2-yl)pyrimidine-4-carboxamide]	> 50000	5.9753	1.075	
C[C@@H](NC(=O)c1nc(-c2ncccc2C(F)(F)F)nc(O)c1O)C1CCCCC1 [Compound 30, (R)-N-(1-cyclohexylethyl)-5,6-dihydroxy-2-(3-(trifluoromethyl)pyridin-2-yl)pyrimidine-4-carboxamide]		>50	5.4	> 50000
COc1ccc(-c2nc(O)c(O)c(C(=O)N[C@H](C)C3CCCCC3)n2)nc1 [Compound 32, (R)-N-(1-cyclohexylethyl)-5,6-dihydroxy-2-(5-methoxypyridin-2-yl)pyrimidine-4-carboxamide]	8260	0.9356	3	
C[C@@H](NC(=O)c1nc(-c2ncccc2Cl)nc(O)c1O)C1CCCCC1 [Compound 33, (R)-2-(3-chloropyridin-2-yl)-N-(1-cyclohexylethyl)-5,6-dihydroxypyrimidine-4-carboxamide]	> 50000	6.8148	3.4	
C[C@@H](NC(=O)c1nc(-c2cccc(Cl)n2)nc(O)c1O)C1CCCCC1 [Compound 34, (R)-2-(6-chloropyridin-2-yl)-N-(1-cyclohexylethyl)-5,6-dihydroxypyrimidine-4-carboxamide]	14500	8.2296	5.88	
